Assay results from paper PMC11952234, “Functional profiling of synthetic camel milk-derived peptides with implication in glucose transport and diabetes” (PLOS One, 2025).
Several values for one entry are separate records, joined by “and”; a condition that tells them apart may be missing. Equal entries are not always repeated. Where two headings read alike, the source gives them in different places. Marks after values point to notes of the source that are not given here. Residues, ends and D or L forms follow the SMILES beside them.

Tests used:
[1] = molecular target: T1, insulin receptor (IR); interaction of IR-Rluc with IRS1-YFP in HEK293 cells (Homo sapiens, UniProt P06213); experiment: BRET assay of IR activation (IR-Rluc/IRS1-YFP), single treatment, dose-response; type: cell-based; settings: HEK293, 1 hour, 37°C, minimal data set for Figure 1, average
T1 construct: expressed in transfected cells; host or cells: HEK293 cells, transient co-transfection; plasmids provided by Dr. Tarik Issad (Cochin Institute, Paris)
Procedure: (§1) HepG2 and HEK293 cells were maintained at 37°C, 5% CO2 in complete RPMI and Dulbecco’s modified Eagle’s medium (DMEM), respectively, containing 0.3 mg/ml glutamine, 100 IU/ml penicillin, and 100 µg/ml streptomycin) supplemented with 10% fetal calf serum (Gibco, Carlsbad, CA, USA). The transient transfection in HEK293 cells was carried out in 75 cm flask containing 10^7 cells using Lipofectamine 2000 and 5 µg of IR-Rluc and 5 µg of IRS1-YFP (for BRET and phosphorylation experiments) as previously described. All assays were performed 48 hours post-transfection.
(§2) BRET technology was used for IR activation and its interaction with IRS1 as previously described. […] Following treatments, 10 μl of Coelenterazine h was added to a final concentration of 5 µ M and BRET measurements were carried out using the Tristar 2 multi-label plate reader (Berthold, Germany), allowing luminescence recording and signal integration at 480 nm and 540 nm.
(§3) Statistical analyses were performed statistical significance between the different treatments and conditions as indicated in the figures and tables and their captions. […] The significance is indicated in the figures by stars (****p-value < 0.0001, ***p-value < 0.001, ** p-value < 0.01, * p-value < 0.05), and the absence of stars means non-significant (p-value > 0.05). However, the two-way ANOVA was used for multiple comparisons to determine the statistical significance between the different peptides when compared to each other in the different assays as described in the tables.

[2] = system: insulin receptor (IR); insulin-induced IR-Rluc/IRS1-YFP BRET in HEK293 cells; experiment: BRET assay of IR activation, peptides combined with insulin; type: cell-based, human; settings: for insulin-induced BRET, % of insulin's response in the vehicle, Average: Average of Experiments 1-7; for insulin-induced BRET, % of insulin's response in the vehicle, Average / insulin-induced BRET, % of insulin's response in the vehicle / % of maximal BRET (insulin-induced): 1 μM insulin + 0.1 mg/ml peptide; for insulin-induced BRET, % of insulin's response in the vehicle, Average / insulin-induced BRET, % of insulin's response in the vehicle: HEK293, minimal data set for Figure 2; for % of maximal BRET (insulin-induced): 1 hour, 37°C, % of insulin's response in the vehicle taken as 100%, mean ± SD of five to seven independent experiments in triplicate; for profile on insulin-dependent BRET response in combined treatment (in words): compared to insulin alone (Vehicle)
Procedure: as §1, §2
as §3, with “For BRET, the data were normalized by taking as 100% of the maximal insulin-induced BRET signal in the vehicle and analyzed using GraphPad Prism software (San Diego, CA, USA). Statistical” for “Statistical”, “tables. In this case, the different letters indicate statistically significant effects (p-value < 0.05), while the same letters indicate no significant difference between the different treatments compared to each other.” for “tables.”

[3] = system: IR phosphorylation (pIR-Tyr1334) in HepG2 cells; experiment: IR phosphorylation by western blot in HepG2 cells; type: cell-based, human; settings: 1 μM insulin + 0.1 mg/ml peptide, 10 minutes, 37°C
Procedure: (§4) Following treatment, cells were then lysed with RIPA lysis buffer and thereafter centrifuged at 12000 × g for 30 minutes. Thereafter, the extracted cell lysate proteins were quantified using the bicinchoninic acid (BCA) protein assay. To examine the phosphorylation status of IR and AKT, 30-40 μg of proteins were loaded on 10% SDS-PAGE gel followed by western blot using the following antibodies: the mouse monoclonal anti-phospho-IR (pIR-Tyr1334)(1:1000 dilution) and the mouse monoclonal anti-phospho-AKT (pAKT-S473)(1:2000 dilution) as previously described. The corresponding total proteins loaded were also analyzed in parallel using the specific antibodies against the native forms of the different proteins. Densitometry analysis of the different western blots was performed using Image Studio Version 5.2 software from LICOR (Lincoln, Nebraska, USA).

[4] = system: HepG2 cells; experiment: Glucose uptake assay (Glucose Uptake-Glo) in HepG2 cells; type: cell-based, human; settings: 1 hour, 37°C; for glucose uptake, specific luminescence signal, Average: Average of Experiments 1-5, HepG2, 0.1 mg/ml peptide or 1 μM insulin, minimal data set for Figure 5
Procedure: Glucose uptake in HepG2 cells was carried out using Glucose Uptake-Glo Assay (Promega). For this, cells seeded in a 96-well white plate (50,000 cells/well) were first washed with PBS and starved in phenol red-, glucose-, and serum-free medium (Dulbecco’s modified Eagle’s medium containing 0.01 mM HEPES, 0.3 mg/ml glutamine, 100 IU/ml penicillin, and 100 µg/ml streptomycin). […] The treatment was removed, and the cells were washed once with PBS and then incubated with 50 μL/well of freshly prepared 2-deoxyglucose (500 μM) for 10 minutes at room temperature. The uptake process was stopped and neutralized, followed by the addition of 50 μl/well of 2-deoxyglucose-6-phosphate (2DG6P) detection reagent and incubation for 15-60 minutes at room temperature. The glucose-6-phosphate dehydrogenase (G6PDH) oxidizes 2DG6P to 6-phosphodeoxygluconate (6PDG) and reduces NADP + to NADPH. The reductase uses NADPH to convert the proluciferin to luciferin, which is then used by Ultra-Glo™ recombinant luciferase to produce luminescence. This luminescence, proportional to the amount of 2-deoxyglucose transported inside the cells upon treatment, was then measured using a 0.3–1 second integration on GloMax® Discover luminometer according to Glucose Uptake-Glo™ protocol.

[5] = system: AKT phosphorylation (pAKT-S473) in HepG2 cells; experiment: AKT phosphorylation by western blot in HepG2 cells; type: cell-based, human; settings: 1 μM insulin + 0.1 mg/ml peptide, 10 minutes, 37°C
Procedure: as §4

[6] = HEK293, read-out: BRET, % of the maximal response of insulin, Average, peptide 0.001 mg/ml
[7] = HEK293, read-out: BRET, % of the maximal response of insulin, Average, peptide 0.005 mg/ml
[8] = HEK293, read-out: BRET, % of the maximal response of insulin, Average, peptide 0.01 mg/ml
[9] = HEK293, read-out: BRET, % of the maximal response of insulin, Average, peptide 0.05 mg/ml
[10] = HEK293, read-out: BRET, % of the maximal response of insulin, Average, peptide 0.1 mg/ml
[11] = HEK293, read-out: BRET, % of the maximal response of insulin, Average, peptide 0.5 mg/ml
[12] = HEK293, read-out: BRET, % of the maximal response of insulin, Average, peptide 1 mg/ml
[13] = HEK293 cells, 0.1 mg/ml peptide + 1 μM insulin

T1 sequence (P06213 28-758 limits assumed): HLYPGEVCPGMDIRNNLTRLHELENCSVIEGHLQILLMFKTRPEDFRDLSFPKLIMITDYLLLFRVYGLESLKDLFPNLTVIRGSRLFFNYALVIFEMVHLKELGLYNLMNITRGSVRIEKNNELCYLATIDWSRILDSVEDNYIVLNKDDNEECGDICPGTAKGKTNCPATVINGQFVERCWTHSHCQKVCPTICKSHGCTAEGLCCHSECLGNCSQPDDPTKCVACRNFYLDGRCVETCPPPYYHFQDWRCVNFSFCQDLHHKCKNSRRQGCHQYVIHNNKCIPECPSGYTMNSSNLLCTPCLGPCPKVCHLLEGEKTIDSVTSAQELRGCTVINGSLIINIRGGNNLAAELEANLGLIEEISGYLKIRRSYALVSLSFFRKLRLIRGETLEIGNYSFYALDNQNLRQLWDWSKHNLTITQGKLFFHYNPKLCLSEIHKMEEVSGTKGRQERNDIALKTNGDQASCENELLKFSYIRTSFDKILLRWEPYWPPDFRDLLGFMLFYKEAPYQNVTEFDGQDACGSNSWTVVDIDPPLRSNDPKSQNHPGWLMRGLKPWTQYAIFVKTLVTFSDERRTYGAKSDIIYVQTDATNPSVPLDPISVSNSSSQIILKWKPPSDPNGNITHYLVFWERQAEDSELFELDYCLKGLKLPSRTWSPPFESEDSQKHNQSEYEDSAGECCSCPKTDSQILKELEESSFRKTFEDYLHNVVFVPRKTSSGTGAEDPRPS
T1 sequence (P06213 763-1382 limits assumed): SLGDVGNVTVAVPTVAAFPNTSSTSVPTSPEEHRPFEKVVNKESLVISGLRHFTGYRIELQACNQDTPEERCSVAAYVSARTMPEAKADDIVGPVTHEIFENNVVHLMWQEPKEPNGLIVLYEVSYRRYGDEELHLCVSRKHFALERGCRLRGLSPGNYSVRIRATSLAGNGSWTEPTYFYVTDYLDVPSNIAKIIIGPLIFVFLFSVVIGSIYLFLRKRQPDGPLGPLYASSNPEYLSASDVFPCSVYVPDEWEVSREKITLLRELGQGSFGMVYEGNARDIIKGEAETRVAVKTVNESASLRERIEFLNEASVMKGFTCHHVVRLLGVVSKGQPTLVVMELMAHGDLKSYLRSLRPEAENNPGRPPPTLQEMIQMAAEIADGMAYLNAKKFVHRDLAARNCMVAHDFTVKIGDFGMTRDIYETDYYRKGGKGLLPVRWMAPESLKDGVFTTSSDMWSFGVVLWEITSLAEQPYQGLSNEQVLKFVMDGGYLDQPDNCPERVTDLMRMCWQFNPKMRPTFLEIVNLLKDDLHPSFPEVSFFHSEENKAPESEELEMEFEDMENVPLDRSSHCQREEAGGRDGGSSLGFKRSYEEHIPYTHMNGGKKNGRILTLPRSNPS

Row | Emax [1, 6] | Emax [1, 7] | Emax [1, 8] | Emax [1, 9] | Emax [1, 10] | Emax [1, 11] | Emax [1, 12] | Structure (SMILES) | insulin-induced BRET, % of insulin's response in the vehicle, Average [2] | insulin-induced BRET, % of insulin's response in the vehicle ([2]; Experiment 2) | insulin-induced BRET, % of insulin's response in the vehicle ([2]; Experiment 3) | insulin-induced BRET, % of insulin's response in the vehicle ([2]; Experiment 4) | insulin-induced BRET, % of insulin's response in the vehicle ([2]; Experiment 6) | insulin-induced BRET, % of insulin's response in the vehicle ([2]; Experiment 7) | % of maximal BRET (insulin-induced) ([2]; HEK293 cells) | profile on insulin-dependent BRET response in combined treatment (in words) [2, 13] | glucose uptake, specific luminescence signal, Average [4] | also measured
1 | 6.9% | 19.9% | 32.1% | 47.3% | 59.2% | 68.7% | 58.9% | CSCC[C@H](NC(=O)[C@H](Cc1c[nH]cn1)NC(=O)[C@H](CS)NC(=O)[C@@H]1CCCN1C(=O)[C@H](CC(C)C)NC(=O)[C@@H]1CCCN1C(=O)[C@@H]1CCCN1C(=O)[C@H](CC(C)C)NC(=O)[C@H](CS)NC(=O)[C@H](CS)NC(=O)[C@H](C)NC(=O)[C@@H](NC(=O)[C@H](C)NC(=O)[C@@H]1CCCN1)C(C)C)C(=O)O [Peptide P2] (H-PAVACCLPPLPCHM-OH; N-terminus and C-terminus assumed) | 52.0 | 33.7 | 14.3 | 58.1 | 70.5 | 56.8 | 52 ± 8% and 52 ± 8^b % | antagonistic | 1417300 | insulin-induced BRET, % of insulin's response in the vehicle ([2]; Experiment 1): 76.0; insulin-induced BRET, % of insulin's response in the vehicle ([2]; Experiment 5): 54.3; decrease of the insulin-dependent BRET response [2, 13]: ~ 50%; insulin-induced IR phosphorylation, combined treatment (in words) [3]: no inhibitory action; % of glucose uptake ([4]; HepG2 cells, 0.1 mg/ml peptide or 1 μM insulin, % of insulin's response taken as 100%, mean ± SD of five independent experiments in triplicate): 56 ± 9^b %
2 | 7.4% | 26.1% | 31.2% | 44.3% | 40.4% | 50.8% | 41.1% | CC(C)[C@H](N)C(=O)N1CCC[C@H]1C(=O)N[C@@H](Cc1ccccc1)C(=O)O [Peptide P7, VPF] (H-Val-Pro-Phe-OH; N-terminus and C-terminus assumed) | 146.7 | 149.4 | 179.1 | 160.6 | 120.3 | 124.3 | 147 ± 11^d % | potentiating | 2605600 | insulin-induced AKT phosphorylation, combined treatment (in words) [5]: slightly potentiated
